Measured values from patent US11731986B2 (Sanford Burnham Prebys Medical Discovery Institute, priority 2017, dated 2023).

Biological target: T1, human LMPTP-A (Homo sapiens, UniProt P24666)
T1 sequence (P24666 1-158): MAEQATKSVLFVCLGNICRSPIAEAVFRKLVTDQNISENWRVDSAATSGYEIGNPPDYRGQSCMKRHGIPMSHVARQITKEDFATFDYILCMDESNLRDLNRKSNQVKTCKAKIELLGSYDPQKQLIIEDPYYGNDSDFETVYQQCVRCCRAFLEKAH
Assay: Enzyme Assay of Inhibition of LMPTP-A (phosphatase assay, OMFP or pNPP substrate)
Format: biochemical
Conditions: Bis-Tris pH 6.0, 37° C.
Summary of the method: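 Buffer 50 mM Bis-Tris pH 6.0, 1 mM DTT, 0.01% Triton X-100, 37 °C; OMFP read continuously (485/525 nm) or pNPP stopped with NaOH, 405 nm. IC50 from concentration vs % activity. Selectivity: 40 μM compound with 0.4 mM OMFP or 5 mM pNPP; reversibility: 50 nM enzyme, 10 μM compound, 5 min, 100× dilution.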

Row | IC50 [nM] | SMILES
1 | 1000 to 20000 | CCN(CC)C(=O)c1ccc(-c2cc(Nc3ccc(OC)cc3)c3cnccc3n2)cc1 [N,N-Diethyl-4-(4-(4-methoxyphenylamino)-1,6-naphthyridin-2-yl)benzamide]
2 | 1000 to 20000 | CCN(CC)C(=O)c1ccc(-c2cc(NC3CCN(C)CC3)c3cnccc3n2)cc1 [N,N-Diethyl-4-(4-((1-methylpiperidin-4-yl)amino)-1,6-naphthyridin-2-yl)benzamide]
3 | 1000 to 20000 | CCN(CC)C(=O)c1ccc(-c2cc(NCCN3CCCCC3)c3cnccc3n2)cc1 [N,N-Diethyl-4-(4-((2-(piperidin-1-yl)ethyl)amino)-1,6-naphthyridin-2-yl)benzamide]
4 | 1000 to 20000 | CCN(CC)C(=O)c1ccc(-c2cc(NCCCN3CCN(S(C)(=O)=O)CC3)c3cnccc3n2)cc1 [N,N-Diethyl-4-(4-((3-(4-(methylsulfonyl)piperazin-1-yl)propyl)amino)-1,6-naphthyridin-2-yl)benzamide]
5 | 1000 to 20000 | CCN(CC)C(=O)c1ccc(-c2cc(NCCCN3CCNCC3)c3cnccc3n2)cc1 [N,N-Diethyl-4-(4-((3-(piperazin-1-yl)propyl)amino)-1,6-naphthyridin-2-yl)benzamide]
6 | 1000 to 20000 | CCN(CC)C(=O)c1ccc(-c2cc(NCCCN3CCOCC3)c3cnccc3n2)cc1 [N,N-Diethyl-4-(4-((3-morpholinopropyl)amino)-1,6-naphthyridin-2-yl)benzamide]
7 | 1000 to 20000 | CCN(CC)C(=O)c1ccc(-c2cc(NC3CCNCC3)c3cnccc3n2)cc1 [N,N-Diethyl-4-(4-(piperidin-4-ylamino)-1,6-naphthyridin-2-yl)benzamide]
8 | ≥ 20000 | CCN(CC)C(=O)c1ccc(-c2cc(NCCCN3CCCCC3)c3cncc(C)c3n2)cc1 [N,N-Diethyl-4-(8-methyl-4-((3-(piperidin-1-yl)propyl)amino)-1,6-naphthyridin-2-yl)benzamide]
9 | 1000 to 20000 | CCN(CC)C(=O)c1nc2ccc(-c3cc(NCCCN4CCCCC4)c4cnccc4n3)cc2o1 [N,N-Diethyl-6-(4-(3-(piperidin-1-yl)propylamino)-1,6-naphthyridin-2-yl)benzo[d]oxazole-2-carboxamide]
10 | 1000 to 20000 | CCN(CC)C(=O)c1nc2ccc(-c3cc(NCCCN4CCCCC4)c4cnccc4n3)cc2s1 [N,N-Diethyl-6-(4-(3-(piperidin-1-yl)propylamino)-1,6-naphthyridin-2-yl)benzo[d]thiazole-2-carboxamide]
11 | 1000 to 20000 | CCN(CC)C(=O)COCc1ccc(-c2cc(NCCCN3CCCCC3)c3cnccc3n2)cc1 [N,N-diethyl-2-((4-(4-((3-(piperidin-1-yl)propyl)amino)-1,6-naphthyridin-2-yl)benzyl)oxy)acetamide]
12 | ≥ 20000 | CCN(CC)C(=O)CCOc1ccc(-c2cc(NCCCN3CCCCC3)c3cnccc3n2)cc1 [N,N-diethyl-3-(4-(4-((3-(piperidin-1-yl)propyl)amino)-1,6-naphthyridin-2-yl)phenoxy)propanamide]
13 | ≥ 20000 | CCN(CC)C(=O)c1ccc(-c2cc(NCCCN3CCCCC3)nc3ncccc23)cc1 [N,N-diethyl-4-(2-(3-(piperidin-1-yl)propylamino)-1,8-naphthyridin-4-yl)benzamide]
14 | 1000 to 20000 | CCN(CC)C(=O)c1ccc(-c2cc(NCCN3CCN(S(C)(=O)=O)CC3)c3cnccc3n2)cc1 [N,N-diethyl-4-(4-(2-(4-(methylsulfonyl)piperazin-1-yl)ethylamino)-1,6-naphthyridin-2-yl)benzamide]
15 | 1000 to 20000 | CCN(CC)C(=O)c1ccc(-c2cc(NCCN3CCN(C)CC3)c3cnccc3n2)cc1 [N,N-diethyl-4-(4-(2-(4-methylpiperazin-1-yl)ethylamino)-1,6-naphthyridin-2-yl)benzamide]
16 | 1000 to 20000 | CCN(CC)C(=O)c1ccc(-c2cc(NCCN3CCNCC3)c3cnccc3n2)cc1 [N,N-diethyl-4-(4-(2-(piperazin-1-yl)ethylamino)-1,6-naphthyridin-2-yl)benzamide]
17 | 1000 to 20000 | CCN(CC)C(=O)c1ccc(-c2cc(NCCN3CCOCC3)c3cnccc3n2)cc1 [N,N-diethyl-4-(4-(2-morpholinoethylamino)-1,6-naphthyridin-2-yl)benzamide]
18 | 1000 to 20000 | CCN(CC)C(=O)c1ccc(-c2cc(NCCCN3CCN(C)CC3)c3cnccc3n2)cc1 [N,N-diethyl-4-(4-(3-(4-methylpiperazin-1-yl)propylamino)-1,6-naphthyridin-2-yl)benzamide]
19 | ≥ 20000 | CCN(CC)C(=O)c1ccc(-c2cc(NCCCN3CCCCC3)c3ncccc3n2)cc1 [N,N-diethyl-4-(4-(3-(piperidin-1-yl)propylamino)-1,5-naphthyridin-2-yl)benzamide]

Row | IC50 [nM] | SMILES
20 | ≤ 1000 | CCN(CC)C(=O)c1ccc(-c2cc(NCCCN3CCCCC3)c3cnccc3n2)cc1 [N,N-diethyl-4-(4-(3-(piperidin-1-yl)propylamino)-1,6-naphthyridin-2-yl)benzamide]
21 | ≥ 20000 | CCN(CC)C(=O)c1ccc(-c2cc(NCCCN3CCCCC3)c3ccncc3n2)cc1 [N,N-diethyl-4-(4-(3-(piperidin-1-yl)propylamino)-1,7-naphthyridin-2-yl)benzamide]
22 | ≥ 20000 | CCN(CC)C(=O)c1ccc(-c2cc(NCCCN3CCCCC3)c3cccnc3n2)cc1 [N,N-diethyl-4-(4-(3-(piperidin-1-yl)propylamino)-1,8-naphthyridin-2-yl)benzamide]
23 | ≤ 1000 | CCN(CC)C(=O)c1ccc(-c2cc(NCCCN3CCCCC3)c3cnccc3n2)c(C(F)(F)F)c1 [N,N-diethyl-4-(4-((3-(piperidin-1-yl)propyl)amino)-1,6-naphthyridin-2-yl)-3-(trifluoromethyl)benzamide]
24 | 1000 to 20000 | CCN(CC)C(=O)c1ccc(-c2cc(NC3CCNC3)c3cnccc3n2)cc1 (centres unmarked) [N,N-diethyl-4-(4-(pyrrolidin-3-ylamino)-1,6-naphthyridin-2-yl)benzamide]
25 | 1000 to 20000 | CCN(CC)C(=O)c1ccc(-c2cc(NC3CCOCC3)c3cnccc3n2)cc1 [N,N-diethyl-4-(4-(tetrahydro-2H-pyran-4-ylamino)-1,6-naphthyridin-2-yl)benzamide]
26 | 1000 to 20000 | CCN(CC)C(=O)c1nc2cc(-c3cc(NCCCN4CCCCC4)c4cnccc4n3)ccc2[nH]1 [N,N-diethyl-5-(4-((3-(piperidin-1-yl)propyl)amino)-1,6-naphthyridin-2-yl)-1H-benzo[d]imidazole-2-carboxamide]
27 | ≤ 1000 | CCN(CC)C(=O)c1cc2ccc(-c3cc(NCCCN4CCCCC4)c4cnccc4n3)cc2s1 [N,N-diethyl-6-(4-(3-(piperidin-1-yl)propylamino)-1,6-naphthyridin-2-yl)benzo[b]thiophene-2-carboxamide]
28 | ≤ 1000 | Cn1c(C(=O)NC2CCS(=O)(=O)CC2)cc2cc(-c3cc(NCCCN4CCCCC4)c4cnccc4n3)ccc21 [N-(1,1-dioxidotetrahydro-2H-thiopyran-4-yl)-1-methyl-5-(4-((3-(piperidin-1-yl)propyl)amino)-1,6-naphthyridin-2-yl)-1H-indole-2-carboxamide]
29 | ≤ 1000 | CN1CCC(NC(=O)CCc2ccc(-c3cc(NC4CCN(C)CC4)c4cnccc4n3)cc2)CC1 [N-(1-Methylpiperidin-4-yl)-3-(4-(4-(1-methylpiperidin-4-ylamino)-1,6-naphthyridin-2-yl)phenyl)propanamide]
30 | ≤ 1000 | CN1CCC(NC(=O)CCOCc2ccc(-c3cc(NCCCN4CCCCC4)c4cnccc4n3)cc2)CC1 [N-(1-Methylpiperidin-4-yl)-3-(4-(4-(3-(piperidin-1-yl)propylamino)-1,6-naphthyridin-2-yl)benzyloxy)propanamide]
31 | 1000 to 20000 | CN1CCC(NC(=O)c2ccc(-c3cc(NC4CCN(C)CC4)c4cnccc4n3)cc2)CC1 [N-(1-Methylpiperidin-4-yl)-4-(4-((1-methylpiperidin-4-yl)amino)-1,6-naphthyridin-2-yl)benzamide]
32 | 1000 to 20000 | CN1CCC(NC(=O)c2ccc(-c3cc(NC4CCN(C)C4)c4cnccc4n3)cc2)CC1 (centres unmarked) [N-(1-Methylpiperidin-4-yl)-4-(4-((1-methylpyrrolidin-3-yl)amino)-1,6-naphthyridin-2-yl)benzamide]
33 | ≤ 1000 | CN1CCC(NC(=O)c2ccc(-c3cc(NC4CCOCC4)c4cnccc4n3)cc2)CC1 [N-(1-Methylpiperidin-4-yl)-4-(4-((tetrahydro-2H-pyran-4-yl)amino)-1,6-naphthyridin-2-yl)benzamide]
34 | 1000 to 20000 | CN1CCC(NC(=O)c2ccc(-c3cc(NC4CCNCC4)c4cnccc4n3)cc2)CC1 [N-(1-Methylpiperidin-4-yl)-4-(4-(piperidin-4-ylamino)-1,6-naphthyridin-2-yl)benzamide]
35 | 1000 to 20000 | CN1CCC(NC(=O)c2ccc(-c3cc(NC4CCNC4)c4cnccc4n3)cc2)CC1 (centres unmarked) [N-(1-Methylpiperidin-4-yl)-4-(4-(pyrrolidin-3-ylamino)-1,6-naphthyridin-2-yl)benzamide]
36 | 1000 to 20000 | CN1CCC(NC(=O)c2cc3ccc(-c4cc(NCCCN5CCCCC5)c5cnccc5n4)cc3[nH]2)CC1 [N-(1-Methylpiperidin-4-yl)-6-(4-(3-(piperidin-1-yl)propylamino)-1,6-naphthyridin-2-yl)-1H-indole-2-carboxamide]
37 | ≤ 1000 | CN1CCC(NC(=O)c2nc3cc(-c4cc(NCCCN5CCCCC5)c5cnccc5n4)cnc3[nH]2)CC1 [N-(1-Methylpiperidin-4-yl)-6-(4-(3-(piperidin-1-yl)propylamino)-1,6-naphthyridin-2-yl)-3H-imidazo[4,5-b]pyridine-2-carboxamide]
38 | ≤ 1000 | CCN1CCC(NC(=O)c2cc3ccc(-c4cc(NCCCN5CCCCC5)c5cnccc5n4)cc3s2)CC1 [N-(1-ethylpiperidin-4-yl)-6-(4-(3-(piperidin-1-yl)propylamino)-1,6-naphthyridin-2-yl)benzo[b]thiophene-2-carboxamide]
